Results from patent publication US20100216827A1 (Metabolex, Inc., priority 2008, published 2010).
Read-outs that look alike come from different tables or passages of the source.

Experiments:
human GPR120 = target: T1, human GPR120 (Homo sapiens, UniProt Q5NUL3); experiment: Intracellular Ca2+ (FLIPR Calcium 4, Flexstation) assay in human GPR120 stable HEK293 cell line coexpressing Gqi5; format: cell-based; details: for % Activity at 5 μM: 5 μM compound compared to the maximal activity of GW9508 at 6.7 μM (100%); for EC50: human GPR120 stably expressing cells, 8 concentrations 0.00001 to 20 μM
T1 construct: host or cells: HEK293 cells coexpressing Gqi5
T1 sequence (Q5NUL3 1-361): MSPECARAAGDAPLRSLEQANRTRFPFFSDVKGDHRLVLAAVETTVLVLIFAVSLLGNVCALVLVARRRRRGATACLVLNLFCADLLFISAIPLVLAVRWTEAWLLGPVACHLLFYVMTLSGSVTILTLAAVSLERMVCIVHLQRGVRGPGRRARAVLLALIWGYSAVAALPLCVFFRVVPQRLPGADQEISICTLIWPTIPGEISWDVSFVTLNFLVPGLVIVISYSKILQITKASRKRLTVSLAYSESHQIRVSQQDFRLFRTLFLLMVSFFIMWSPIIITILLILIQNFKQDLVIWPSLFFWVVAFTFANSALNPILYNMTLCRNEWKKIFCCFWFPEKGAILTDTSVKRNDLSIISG
Outline: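 Calcium 4 dye-loaded HEK293 cells expressing N-terminally Flag-tagged human GPR120 with Gqi5 (HBSS/20 mM HEPES, pH 7.4; 50 min, 37 °C). Fluorescence (485/525 nm) read for 90 s after addition of compound at 8 concentrations, 0.00001–20 μM; EC50 from Max−Min change. % activity at 5 μM versus maximal GW9508 response (6.7 μM).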

C57BL/6J mice [1] = experiment: Intra-peritoneal glucose tolerance test (IPGTT); format: in vivo; details: 100 mg/kg oral gavage, overnight fasted male C57BL/6J mice, 2 g/kg glucose i.p., vs vehicle
Description: 8-10 week old male C57BL/6J mice (Harlan) were maintained on regular chow diet from Harlan (2018 Teklad Global). For the oral glucose tolerance test (OGTT), on the day of the experiment mice were fasted for 6 hours, then randomized into groups (n=10-15) to receive the tested GPR120 agonist at doses ranging from 30 mg/kg to 100 mg/kg or the vehicle (1% CMC, 2% TWEEN 80). For the intra-peritoneal glucose tolerance test (IPGTT), the mice were fasted for overnight, then randomized into groups (n=10-15) to receive the tested GPR120 agonist at doses ranging from 30 mg/kg to 100 mg/kg or the vehicle (1% CMC, 2% TWEEN 80). Compounds were delivered orally via gavage at 10 mL/kg. Blood glucose levels were measured by glucometer (Ascensia Elite XL, Bayer) at time −30 minutes before administration of compound. Blood glucose was measured again after 30 minutes (at time 0), and then the mice were dosed orally with 3 g/kg glucose at 10 mL/kg or were dosed intraperitoneally with 2 g/kg glucose at 10 mL/kg. […]
Glucose levels were plotted against time, and the incremental area under the curve (AUC) of the glucose excursion was determined from time 0 using Graphpad Prism 5.01. Outliers were excluded using Tukey's box plot outlier test, and statistical significance of differences in AUC of compound treatment compared to vehicle was determined by non-parametric Kruskal-Wallis test with Dunn's post test. […]

C57BL/6J mice [2] = experiment: Oral glucose tolerance test (OGTT); format: in vivo; details: 6 h fasted male C57BL/6J mice, 3 g/kg oral glucose, vs vehicle
Description: 8-10 week old male C57BL/6J mice (Harlan) were maintained on regular chow diet from Harlan (2018 Teklad Global). For the oral glucose tolerance test (OGTT), on the day of the experiment mice were fasted for 6 hours, then randomized into groups (n=10-15) to receive the tested GPR120 agonist at doses ranging from 30 mg/kg to 100 mg/kg or the vehicle (1% CMC, 2% TWEEN 80). For the intra-peritoneal glucose tolerance test (IPGTT), the mice were fasted for overnight, then randomized into groups (n=10-15) to receive the tested GPR120 agonist at doses ranging from 30 mg/kg to 100 mg/kg or the vehicle (1% CMC, 2% TWEEN 80). Compounds were delivered orally via gavage at 10 mL/kg. Blood glucose levels were measured by glucometer (Ascensia Elite XL, Bayer) at time −30 minutes before administration of compound. Blood glucose was measured again after 30 minutes (at time 0), and then the mice were dosed orally with 3 g/kg glucose at 10 mL/kg or were dosed intraperitoneally with 2 g/kg glucose at 10 mL/kg. Blood glucose measurements were taken 20, 40, 60, 90 and 120 minutes after glucose administration, by glucometer (Ascensia Elite XL, Bayer).
Glucose levels were plotted against time, and the incremental area under the curve (AUC) of the glucose excursion was determined from time 0 using Graphpad Prism 5.01. Outliers were excluded using Tukey's box plot outlier test, and statistical significance of differences in AUC of compound treatment compared to vehicle was determined by non-parametric Kruskal-Wallis test with Dunn's post test.
The compounds were tested at 100 mg/kg and the levels of blood glucose were determined in the presence and absence of the tested compounds. The percentage of glucose or intra-peritoneal reduction is reported as a percent reduction in AUC (area under the curve). The tested compound was selected as examples from the exemplified compounds.

[3] = read-out: EC50 between >1 μM and ≦10 μM

| SMILES | % Activity at 5 μM (human GPR120) [%] | EC50 (human GPR120; read-out: EC50 ≦ 1 μM) [nM] | EC50 (human GPR120; [3]) [nM] | also measured |
| --- | --- | --- | --- | --- |
| Cc1cc(COc2c(F)cc(CC(C)C(=O)O)cc2F)n(-c2ccc(Cl)cc2)n1 (stereo not shown) [Example 36, 3-(4-((1-(4-chlorophenyl)-3-methyl-1H-pyrazol-5-yl)methoxy)-3,5-difluorophenyl)-2-methylpropanoic acid] | 96 | ≤ 1000 |  | % reduction in IPGTT AUC (C57BL/6J mice [1]): 24%; % reduction in OGTT AUC (C57BL/6J mice [2]; 30 mg/kg oral gavage): 15%; % reduction in OGTT AUC (C57BL/6J mice [2]; 100 mg/kg oral gavage): 45.2% |
| Cc1cc(COc2c(F)cc(C[C@@H](C)C(=O)O)cc2F)n(-c2ccc(Cl)cc2)n1 [Example 43, (R)-3-(4-((1-(4-chlorophenyl)-3-methyl-1H-pyrazol-5-yl)methoxy)-3,5-difluorophenyl)-2-methylpropanoic acid] |  |  |  | % reduction in OGTT AUC (C57BL/6J mice [2]; 30 mg/kg oral gavage): 20%; % reduction in OGTT AUC (C57BL/6J mice [2]; 100 mg/kg oral gavage): 40% |
| Cc1cc(COc2c(F)cc(C[C@H](C)C(=O)O)cc2F)n(-c2ccc(Cl)cc2)n1 [Example 44, (S)-3-(4-((1-(4-chlorophenyl)-3-methyl-1H-pyrazol-5-yl)methoxy)-3,5-difluorophenyl)-2-methylpropanoic acid] |  |  |  | % reduction in OGTT AUC (C57BL/6J mice [2]; 30 mg/kg oral gavage): 33%; % reduction in OGTT AUC (C57BL/6J mice [2]; 100 mg/kg oral gavage): 39% |
| CCc1ccc(-n2nc(C)cc2COc2ccc3c(c2)CCCC3CC(=O)O)cc1 (stereo not shown) [Example 123, 2-(6-((1-(4-ethylphenyl)-3-methyl-1H-pyrazol-5-yl)methoxy)-1,2,3,4-tetrahydronaphthalen-1-yl)acetic acid] | 67 |  |  | EC50 (human GPR120; read-out: EC50 > 10 μM): > 10000 nM |
| Cc1cc(COc2c(F)cc(CC(C)C(=O)O)cc2F)n(-c2ccccn2)n1 (stereo not shown) [Example 124, 3-(3,5-difluoro-4-((3-methyl-1-(pyridin-2-yl)-1H-pyrazol-5-yl)methoxy)phenyl)-2-methylpropanoic acid] | 33 |  |  | EC50 (human GPR120; read-out: EC50 > 10 μM): > 10000 nM |
| CCc1ccc(-n2nc(C)cc2COc2ccc(C(C)(C)CC(=O)O)cc2)cc1 [Example 126, 3-(4-((1-(4-ethylphenyl)-3-methyl-1H-pyrazol-5-yl)methoxy)phenyl)-3-methylbutanoic acid] | 48 |  | 1000 to 10000 |  |
| CCc1ccc(-n2nc(C)cc2COc2ccc(CCCC(=O)O)cc2)cc1 [Example 129, 4-(4-((1-(4-ethylphenyl)-3-methyl-1H-pyrazol-5-yl)methoxy)phenyl)butanoic acid] | 99 | ≤ 1000 |  |  |
| CCc1ccc(-n2nc(C)cc2COc2c(F)cc(CCCC(=O)O)cc2F)cc1 [Example 130, 4-(4-((1-(4-ethylphenyl)-3-methyl-1H-pyrazol-5-yl)methoxy)-3,5-difluorophenyl)butanoic acid] | 103 | ≤ 1000 |  |  |
| CCc1ccc(-n2nc(C)cc2COc2ccc(CCC(C)C(=O)O)cc2)cc1 (stereo not shown) [Example 132, 4-(4-((1-(4-ethylphenyl)-3-methyl-1H-pyrazol-5-yl)methoxy)phenyl)-2-methylbutanoic acid] | 85 |  | 1000 to 10000 |  |

Now from value to compound, other results behind:

| % Activity at 5 μM (human GPR120) [%] | EC50 (human GPR120; read-out: EC50 ≦ 1 μM) [nM] | EC50 (human GPR120; [3]) [nM] | SMILES | also measured |
| --- | --- | --- | --- | --- |
| 47 |  | 1000 to 10000 | Cc1cc(COc2ccc(C(C)(C)CC(=O)O)cc2)n(-c2ccc(Cl)cc2)n1 [Example 125, 3-(4-((1-(4-chlorophenyl)-3-methyl-1H-pyrazol-5-yl)methoxy)phenyl)-3-methylbutanoic acid] |  |
| 112 | ≤ 1000 |  | Cc1cc(COc2ccc(CCCC(=O)O)cc2)n(-c2ccc(Cl)cc2)n1 [Example 127, 4-(4-((1-(4-chlorophenyl)-3-methyl-1H-pyrazol-5-yl)methoxy)phenyl)butanoic acid] |  |
| 112 | ≤ 1000 |  | Cc1cc(COc2c(F)cc(CCCC(=O)O)cc2F)n(-c2ccc(Cl)cc2)n1 [Example 128, 4-(4-((1-(4-chlorophenyl)-3-methyl-1H-pyrazol-5-yl)methoxy)-3,5-difluorophenyl)butanoic acid] |  |
| 68 |  | 1000 to 10000 | Cc1cc(COc2ccc(CCC(C)C(=O)O)cc2)n(-c2ccc(Cl)cc2)n1 (stereo not shown) [Example 131, 4-(4-((1-(4-chlorophenyl)-3-methyl-1H-pyrazol-5-yl)methoxy)phenyl)-2-methylbutanoic acid] |  |
| 107 |  | 1000 to 10000 | COc1cc(CCC(=O)O)ccc1OCc1cc(C)nn1-c1ccc(Cl)cc1 [Example 133, 3-(4-((1-(4-chlorophenyl)-3-methyl-1H-pyrazol-5-yl)methoxy)-3-methoxyphenyl)propanoic acid] |  |
